Measured values taken from article PMC12454493, “Insight on novel sulfamoylphenyl pyrazole derivatives as anticancer carbonic anhydrase inhibitors” (Molecular Diversity, 2024).
Where “and” joins values, the source holds several entries; their conditions need not be identical. Identical values can stand only once.

Tests used:
PC-3 = test: NCI-60 one-dose SRB screen (Prostate Cancer); assay type: cell-based; conditions: Homo sapiens, single dose 10 µM, 48 h, read-out: Growth inhibition percent (GI %)
DU-145 = test: NCI-60 one-dose SRB screen (Prostate Cancer); assay type: cell-based; conditions: Homo sapiens, single dose 10 µM, 48 h, read-out: Growth inhibition percent (GI %)
EKVX = test: NCI-60 one-dose SRB screen (Non-Small Cell Lung Cancer); assay type: cell-based; conditions: Homo sapiens, single dose 10 µM, 48 h, read-out: Growth inhibition percent (GI %)
A549/ATCC = test: as above; assay type: cell-based; conditions: Homo sapiens, single dose 10 µM, 48 h, read-out: Growth inhibition percent (GI %)
NCI-H522 = test: as above; assay type: cell-based; conditions: Homo sapiens, single dose 10 µM, 48 h, read-out: Growth inhibition percent (GI %)
HOP-92 = test: as above; assay type: cell-based; conditions: Homo sapiens, single dose 10 µM, 48 h, read-out: Growth inhibition percent (GI %)
NCI-H23 = test: as above; assay type: cell-based; conditions: Homo sapiens, single dose 10 µM, 48 h, read-out: Growth inhibition percent (GI %)
NCI-H226 = test: as above; assay type: cell-based; conditions: Homo sapiens, single dose 10 µM, 48 h, read-out: Growth inhibition percent (GI %)
HOP-62 = test: as above; assay type: cell-based; conditions: Homo sapiens, single dose 10 µM, 48 h, read-out: Growth inhibition percent (GI %)
NCI-H322M = test: as above; assay type: cell-based; conditions: Homo sapiens, single dose 10 µM, 48 h, read-out: Growth inhibition percent (GI %)
NCI-H460 = test: as above; assay type: cell-based; conditions: Homo sapiens, single dose 10 µM, 48 h, read-out: Growth inhibition percent (GI %)
HT29 = test: NCI-60 one-dose SRB screen (Colon Cancer); assay type: cell-based; conditions: Homo sapiens, HT-29, single dose 10 µM, 48 h, read-out: Growth inhibition percent (GI %)
HCC-2998 = test: NCI-60 one-dose SRB screen (Colon Cancer); assay type: cell-based; conditions: Homo sapiens, single dose 10 µM, 48 h, read-out: Growth inhibition percent (GI %)
KM12 = test: NCI-60 one-dose SRB screen (Colon Cancer); assay type: cell-based; conditions: Homo sapiens, single dose 10 µM, 48 h, read-out: Growth inhibition percent (GI %)
HCT-116 = test: NCI-60 one-dose SRB screen (Colon Cancer); assay type: cell-based; conditions: Homo sapiens, single dose 10 µM, 48 h, read-out: Growth inhibition percent (GI %)
HCT-15 = test: NCI-60 one-dose SRB screen (Colon Cancer); assay type: cell-based; conditions: Homo sapiens, single dose 10 µM, 48 h, read-out: Growth inhibition percent (GI %)
COLO 205 = test: NCI-60 one-dose SRB screen (Colon Cancer); assay type: cell-based; conditions: Homo sapiens, single dose 10 µM, 48 h, read-out: Growth inhibition percent (GI %)
SW-620 = test: NCI-60 one-dose SRB screen (Colon Cancer); assay type: cell-based; conditions: Homo sapiens, single dose 10 µM, 48 h, read-out: Growth inhibition percent (GI %)
MDA-MB-435 = test: NCI-60 one-dose SRB screen (Melanoma); assay type: cell-based; conditions: Homo sapiens, single dose 10 µM, 48 h, read-out: Growth inhibition percent (GI %)
UACC-257 = test: NCI-60 one-dose SRB screen (Melanoma); assay type: cell-based; conditions: Homo sapiens, single dose 10 µM, 48 h, read-out: Growth inhibition percent (GI %)
SK-MEL-5 = test: NCI-60 one-dose SRB screen (Melanoma); assay type: cell-based; conditions: Homo sapiens, single dose 10 µM, 48 h, read-out: Growth inhibition percent (GI %)
SK-MEL-2 = test: NCI-60 one-dose SRB screen (Melanoma); assay type: cell-based; conditions: Homo sapiens, single dose 10 µM, 48 h, read-out: Growth inhibition percent (GI %)
SK-MEL-28 = test: NCI-60 one-dose SRB screen (Melanoma); assay type: cell-based; conditions: Homo sapiens, single dose 10 µM, 48 h, read-out: Growth inhibition percent (GI %)
MALME-3M = test: NCI-60 one-dose SRB screen (Melanoma); assay type: cell-based; conditions: Homo sapiens, single dose 10 µM, 48 h, read-out: Growth inhibition percent (GI %)
LOX IMVI = test: NCI-60 one-dose SRB screen (Melanoma); assay type: cell-based; conditions: Homo sapiens, single dose 10 µM, 48 h, read-out: Growth inhibition percent (GI %)
M14 = test: NCI-60 one-dose SRB screen (Melanoma); assay type: cell-based; conditions: Homo sapiens, single dose 10 µM, 48 h, read-out: Growth inhibition percent (GI %)
CAKI-1 = test: NCI-60 one-dose SRB screen (Renal Cancer); assay type: cell-based; conditions: Homo sapiens, single dose 10 µM, 48 h, read-out: Growth inhibition percent (GI %)
SN12C = test: NCI-60 one-dose SRB screen (Renal Cancer); assay type: cell-based; conditions: Homo sapiens, single dose 10 µM, 48 h, read-out: Growth inhibition percent (GI %)
UO-31 = test: NCI-60 one-dose SRB screen (Renal Cancer); assay type: cell-based; conditions: Homo sapiens, single dose 10 µM, 48 h, read-out: Growth inhibition percent (GI %)
786-0 = test: NCI-60 one-dose SRB screen (Renal Cancer); assay type: cell-based; conditions: Homo sapiens, single dose 10 µM, 48 h, read-out: Growth inhibition percent (GI %)
RXF 393 = test: NCI-60 one-dose SRB screen (Renal Cancer); assay type: cell-based; conditions: Homo sapiens, single dose 10 µM, 48 h, read-out: Growth inhibition percent (GI %)
TK-10 = test: NCI-60 one-dose SRB screen (Renal Cancer); assay type: cell-based; conditions: Homo sapiens, single dose 10 µM, 48 h, read-out: Growth inhibition percent (GI %)
ACHN = test: NCI-60 one-dose SRB screen (Renal Cancer); assay type: cell-based; conditions: Homo sapiens, single dose 10 µM, 48 h, read-out: Growth inhibition percent (GI %)
A498 = test: NCI-60 one-dose SRB screen (Renal Cancer); assay type: cell-based; conditions: Homo sapiens, single dose 10 µM, 48 h, read-out: Growth inhibition percent (GI %)
SF-539 = test: NCI-60 one-dose SRB screen (CNS Cancer); assay type: cell-based; conditions: Homo sapiens, single dose 10 µM, 48 h, read-out: Growth inhibition percent (GI %)
U251 = test: NCI-60 one-dose SRB screen (CNS Cancer); assay type: cell-based; conditions: Homo sapiens, U-251, single dose 10 µM, 48 h, read-out: Growth inhibition percent (GI %)
SNB-75 = test: NCI-60 one-dose SRB screen (CNS Cancer); assay type: cell-based; conditions: Homo sapiens, single dose 10 µM, 48 h, read-out: Growth inhibition percent (GI %)
SF-295 = test: NCI-60 one-dose SRB screen (CNS Cancer); assay type: cell-based; conditions: Homo sapiens, single dose 10 µM, 48 h, read-out: Growth inhibition percent (GI %)
SNB-19 = test: NCI-60 one-dose SRB screen (CNS Cancer); assay type: cell-based; conditions: Homo sapiens, single dose 10 µM, 48 h, read-out: Growth inhibition percent (GI %)
SF-268 = test: NCI-60 one-dose SRB screen (CNS Cancer); assay type: cell-based; conditions: Homo sapiens, single dose 10 µM, 48 h, read-out: Growth inhibition percent (GI %)
OVCAR-4 = test: NCI-60 one-dose SRB screen (Ovarian cancer); assay type: cell-based; conditions: Homo sapiens, single dose 10 µM, 48 h, read-out: Growth inhibition percent (GI %)
OVCAR-3 = test: NCI-60 one-dose SRB screen (Ovarian cancer); assay type: cell-based; conditions: Homo sapiens, single dose 10 µM, 48 h, read-out: Growth inhibition percent (GI %)
SK-OV-3 = test: NCI-60 one-dose SRB screen (Ovarian cancer); assay type: cell-based; conditions: Homo sapiens, single dose 10 µM, 48 h, read-out: Growth inhibition percent (GI %)
NCI/ADR-RES = test: NCI-60 one-dose SRB screen (Ovarian cancer); assay type: cell-based; conditions: Homo sapiens, single dose 10 µM, 48 h, read-out: Growth inhibition percent (GI %)
OVCAR-5 = test: NCI-60 one-dose SRB screen (Ovarian cancer); assay type: cell-based; conditions: Homo sapiens, single dose 10 µM, 48 h, read-out: Growth inhibition percent (GI %)
OVCAR-8 = test: NCI-60 one-dose SRB screen (Ovarian cancer); assay type: cell-based; conditions: Homo sapiens, single dose 10 µM, 48 h, read-out: Growth inhibition percent (GI %)
IGROV1 = test: NCI-60 one-dose SRB screen (Ovarian cancer); assay type: cell-based; conditions: Homo sapiens, IGROV-1, single dose 10 µM, 48 h, read-out: Growth inhibition percent (GI %)
hCA XII = hCA XII (Homo sapiens, UniProt O43570); test: CA inhibitory activity, spectrophotometric p-NPA assay; assay type: biochemical
Sequence of hCA XII (O43570 25-354): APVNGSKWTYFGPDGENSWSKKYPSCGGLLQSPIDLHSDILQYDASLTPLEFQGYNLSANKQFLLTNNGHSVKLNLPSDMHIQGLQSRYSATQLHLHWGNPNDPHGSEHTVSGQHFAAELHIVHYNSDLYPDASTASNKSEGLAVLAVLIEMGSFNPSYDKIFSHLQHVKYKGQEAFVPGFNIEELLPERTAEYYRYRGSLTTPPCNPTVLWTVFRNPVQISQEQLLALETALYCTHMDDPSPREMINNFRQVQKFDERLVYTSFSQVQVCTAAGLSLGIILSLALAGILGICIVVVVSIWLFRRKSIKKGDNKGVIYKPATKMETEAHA

COc1ccc(-c2nn(-c3ccc(S(N)(=O)=O)cc3)cc2C(=O)OCC(=O)Nc2nnc(S(N)(=O)=O)s2)cc1 [Compound 6c, 2-Oxo-2-[(5-sulfamoyl-1,3,4-thiadiazol-2-yl)amino] ethyl 3-(4-methoxyphenyl)-1-(4-sulfamoylphenyl)-1H-pyrazole-4-carboxylate]
inhibition at 10 µM (PC-3): < 5%
inhibition at 10 µM (DU-145): < 5%
inhibition at 10 µM (EKVX): 11.2%
inhibition at 10 µM (A549/ATCC): < 5%
inhibition at 10 µM (NCI-H522): 5.91%
inhibition at 10 µM (HOP-92): 27.4%
inhibition at 10 µM (NCI-H23): < 5%
inhibition at 10 µM (NCI-H226): 8.69%
inhibition at 10 µM (HOP-62): < 5%
inhibition at 10 µM (NCI-H322M): < 5%
inhibition at 10 µM (NCI-H460): < 5%
inhibition at 10 µM (HT29): < 5%
inhibition at 10 µM (HCC-2998): < 5%
inhibition at 10 µM (KM12): < 5%
inhibition at 10 µM (HCT-116): < 5%
inhibition at 10 µM (HCT-15): < 5%
inhibition at 10 µM (COLO 205): < 5%
inhibition at 10 µM (SW-620): < 5%
inhibition at 10 µM (MDA-MB-435): < 5%
inhibition at 10 µM (UACC-257): < 5%
inhibition at 10 µM (SK-MEL-5): < 5%
inhibition at 10 µM (SK-MEL-2): < 5%
inhibition at 10 µM (SK-MEL-28): < 5%
inhibition at 10 µM (MALME-3M): 5.67%
inhibition at 10 µM (LOX IMVI): 8.56%
inhibition at 10 µM (M14): < 5%
inhibition at 10 µM (CAKI-1): 21.5%
inhibition at 10 µM (SN12C): < 5%
inhibition at 10 µM (UO-31): 14.9%
inhibition at 10 µM (786-0): < 5%
inhibition at 10 µM (RXF 393): < 5%
inhibition at 10 µM (TK-10): < 5%
inhibition at 10 µM (ACHN): < 5%
inhibition at 10 µM (A498): 7.75%
inhibition at 10 µM (SF-539): < 5%
inhibition at 10 µM (U251): < 5%
inhibition at 10 µM (SNB-75): 13.4%
inhibition at 10 µM (SF-295): < 5%
inhibition at 10 µM (SNB-19): < 5%
inhibition at 10 µM (SF-268): < 5%
inhibition at 10 µM (OVCAR-4): < 5%
inhibition at 10 µM (OVCAR-3): < 5%
inhibition at 10 µM (SK-OV-3): < 5%
inhibition at 10 µM (NCI/ADR-RES): < 5%
inhibition at 10 µM (OVCAR-5): < 5%
inhibition at 10 µM (OVCAR-8): < 5%
inhibition at 10 µM (IGROV1): < 5%
Ki (hCA XII): 95 nM
IC50 (hCA XII; p-NPA substrate, pH 7.5, 25 °C, triplicate, read-out: IC50 (µM) ± SD hCA XII): 0.09 µM and 0.095 µM
